Columns and labels:
[1] = target: T1, hERG (Homo sapiens, UniProt Q12809); assay: hERG flux (Tl+ flux, FLIPR) in HEK293 cells; format: cell-based; details: HEK293 cells stably expressing hERG
T1 construct: expressed in transfected cells
Protocol: HEK293 cells stably-expressing hERG channels were grown (37° C., 5% CO2) in Dulbecco's Modified Eagle's Media supplemented with 10% Sigma fetal bovine serum, non-essential amino acids, 2 mM L-glutamine and 500 μg/ml G418, at incubator.
A 2 mM stock of BTC-AM dye (Molecular Probes, Eugene, Oreg.) was prepared in 100% DMSO and then added 1:1 to 10% (w/v) pluronic acid in DMSO on the day of assay. The dye was then diluted in hERG external EP buffer (140 mM NaCl, 4.0 mM KCl, 1.8 mM CaCl2, 1.0 mM MgCl2, 10 mM HEPES, pH 7.3 and 10 mM glucose; all buffer components obtained from Sigma Chemical). […] Cells are incubated at 21° C. for 45 minutes.
These compounds were then serially-diluted at a 1:2 ratio in DMSO in columns 1-10 and 11-20 of a 384-well plate. Assay-ready plates were generated by stamping 2.5 μl from the DMSO serially diluted plate, which was prepared on the Velocity 11 BioCel. Aqueous plates were created by adding 48 μl of EP buffer and then were diluted 30-45 minutes before the assay was read on the FLIPR. […] Final DMSO concentration in the assay is 1%. Assay-ready aqueous plates were prepared and diluted on a Cybio liquid handler.
Data collection proceeded every second for 48 seconds, and then continued every three seconds for an additional 2 minutes.
The dynamic range of the assay was determined from blanks and totals wells. The totals wells (columns 21 and 22) define maximal hERG activation for the plate (no test compound present), and the blanks wells (columns 23 and 24) define 100% hERG inhibition. […] Raw data points in each sample well were first corrected for cell/signal variation, negative control (blanks) background, and normalized to the positive controls (totals) using the online FLIPR software. Test compound concentration response curves for the hERG Tl^+ flux data were then fit using Excel Fit (ID Business Solutions Limited, Surrey, UK) with a single-site logistic equation, Y=A+((B−A)/1+((C/X)^D))) where A=maximal inhibition. Data were analyzed by fitting maximum amplitudes of change in fluorescence for Tl^+ flux for a given condition of test compound.

[2] = Parallel Artificial Membrane Permeability Assay (PAMPA); format: in vitro ADME; details: apical and basolateral pH 7.4
Protocol: All experiments are conducted in triplicate determinations.

[3] = target: T1, hERG; assay: hERG patch clamp (whole-cell, HEK-293); format: cell-based; details: for inhibition at 10000 nM: pH 7.4, 10,000 nM; for inhibition at 30000 nM: pH 7.4, 30,000 nM
[4] = target: human cardiac sodium channel, SCN5A (Nav1.5) (Homo sapiens, UniProt Q14524); assay: Sodium channel patch clamp (whole-cell, HEK-293); format: cell-based; details: HEK-293 cells expressing human cardiac sodium channel SCN5A, 30,000 nM, read-out: Na+ channel patch clamp (% inhibition)
Protocol: The compound was tested at a protein-free aqueous buffer. For determining steady state inhibition, sodium currents were elicited every 5 seconds using the following voltage protocol: cells were held at a potential of −90 mV and stepped to −20 mV for 60 ms. Effects were calculated by measuring inhibition of peak current during the test pulse to −20 mV. Rate-dependence of inhibition was assessed by stimulation at frequencies of 1 Hz and 4 Hz.

[5] = target: T2, human CCR2 (Homo sapiens, UniProt P41597); assay: Human peripheral blood mononuclear cell binding (CCR2 binding), 125I-human MCP-1 tracer; design: hPBMCs were isolated from human leukopak (Biological Specialty Inc.); endogenous in cells; host or cells: human peripheral blood mononuclear cells from leukopak (Biological Specialty Inc.); details: hPBMCs, 125I-MCP-1; figure in parentheses in the cell not copied (count of determinations); read-out: CCR2 Binding IC50
T2 sequence (P41597 1-360 isoform P41597-2): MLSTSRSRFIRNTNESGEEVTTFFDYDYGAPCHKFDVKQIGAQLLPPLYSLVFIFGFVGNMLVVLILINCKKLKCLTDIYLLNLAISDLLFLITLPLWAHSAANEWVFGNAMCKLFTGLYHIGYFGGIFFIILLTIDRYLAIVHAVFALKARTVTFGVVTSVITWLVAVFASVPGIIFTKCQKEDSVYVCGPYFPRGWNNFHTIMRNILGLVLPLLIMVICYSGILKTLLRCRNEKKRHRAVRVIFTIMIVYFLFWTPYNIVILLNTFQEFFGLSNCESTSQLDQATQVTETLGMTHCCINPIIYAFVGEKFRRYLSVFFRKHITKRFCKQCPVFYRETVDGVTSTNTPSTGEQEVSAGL
Protocol: See also: Yoshimura et al., J. Immunol. 1990, 145, 292. The human CCR2 binding assay was established with human peripheral blood mononuclear cells (hPBMCs) using ^125I-human MCP-1 as the tracer ligand. hPBMCs were isolated from human leukopak (Biological Specialty Inc.) using a standard protocol with Ficoll-Hypaque (Mediatech Cellgro). Isolated hPBMCs were washed and diluted to 1×10^7/ml in binding buffer (RPMI-1640, 0.1% BSA, 20 mM Hepes, pH 7.4). ^125I-MCP-1 (NEN/Perk Elmer) was diluted to 0.45 nM in binding buffer. The compound was diluted in binding buffer at 3-fold the final concentrations used in the binding assay. The binding assay was performed using a 96-well filter plate (Millipore). Total ^125I-MCP-1 binding was assessed as follows: to each reaction of a total volume of 150 μl were added 5×10^5 cells, 0.15 nM […], and compound such that the final concentration ranged from 0 to 100 nM. The plate was incubated at room temperature for 30 minutes followed by three washes with RPMI-1640, 0.1% BSA, 0.4 M NaCl, 20 mM Hepes, pH 7.4 using a vacuum manifold filtration (Millipore). After washing, the plate was air-dried for 60 minutes at room temperature. This was followed by adding 25 μl of Microscint 20 into each well. The plate was sealed and counted on the Trilux for 1 minute. Non-specific binding was determined in the presence of 300 nM cold MCP-1 (PeproTech Inc.). Specific 1-MCP-1 was calculated as the difference between total and non-specific binding. All conditions were tested in duplicate.

[6] = target: T2, human CCR2; assay: CCR2 chemotaxis (MCP-1-induced, THP-1 cells); format: cell-based; design: hPBMCs were isolated from human leukopak (Biological Specialty Inc.); endogenous in cells; host or cells: human peripheral blood mononuclear cells from leukopak (Biological Specialty Inc.)
Protocol: The human CCR2 chemotaxis assay was conducted with the human monocytic cell line, THP-1. THP-1 cells were first labeled with the fluorescent dye Calcein-AM in phenol red-free, BSA-free RPMI-1640 (pH 7.4) at 37° C. for 30 minutes with gentle mixing every 15 minutes. The labeled cells were then washed and re-suspended at 1×10^5/ml in chemotaxis buffer (phenol red-free RPMI-1640, 0.1% BSA, pH 7.4). The test compound was diluted in chemotaxis buffer such that the final assay concentration ranged from 0.01 nM to 1 μM. […] To perform the assay, an equal volume of test compound dilutions was mixed with an equal volume of labeled THP-1 cells (Mixture 1), and an equal volume of test compound dilutions was mixed with an equal volume of diluted MCP-1 ligand (Mixture 2). Both mixtures were incubated independently at 37° C. for 10 minutes followed by gentle mixing. MCP-1-induced chemotaxis was then measured in a chemotaxis plate (Becton Dickinson) by placing 50 μl of Mixture 1 in the top chamber and 225 μl of Mixture 2 in the bottom chamber. The plate was covered with a lid and incubated at 37° C. for 30 minutes. 30 minutes later, the plate was read on a Cytofluor. All conditions were tested in duplicate. […] The inhibition achieved by graded concentrations of test compound was calculated as a percentage of the compound-free MCP-1 control.

[7] = Single-dose pharmacokinetics in rats; format: in vivo; details: male, Sprague-Dawley, plasma, rat, dose per compound (mg/kg); for AUC: PO; for clearance: IV; for bioavailability: oral bioavailability
Protocol: (1500-2000×g) to obtain plasma. […] Plasma samples, obtained by centrifugation at 4° C.

[8] = Single-dose pharmacokinetics in monkeys; format: in vivo; details: male, cynomolgus monkey, plasma, dose per compound (mg/kg); for AUC: PO; for clearance: IV; for bioavailability: oral bioavailability
Description: (1500-2000×g) to obtain plasma.

T1 sequence (Q12809 whole entry): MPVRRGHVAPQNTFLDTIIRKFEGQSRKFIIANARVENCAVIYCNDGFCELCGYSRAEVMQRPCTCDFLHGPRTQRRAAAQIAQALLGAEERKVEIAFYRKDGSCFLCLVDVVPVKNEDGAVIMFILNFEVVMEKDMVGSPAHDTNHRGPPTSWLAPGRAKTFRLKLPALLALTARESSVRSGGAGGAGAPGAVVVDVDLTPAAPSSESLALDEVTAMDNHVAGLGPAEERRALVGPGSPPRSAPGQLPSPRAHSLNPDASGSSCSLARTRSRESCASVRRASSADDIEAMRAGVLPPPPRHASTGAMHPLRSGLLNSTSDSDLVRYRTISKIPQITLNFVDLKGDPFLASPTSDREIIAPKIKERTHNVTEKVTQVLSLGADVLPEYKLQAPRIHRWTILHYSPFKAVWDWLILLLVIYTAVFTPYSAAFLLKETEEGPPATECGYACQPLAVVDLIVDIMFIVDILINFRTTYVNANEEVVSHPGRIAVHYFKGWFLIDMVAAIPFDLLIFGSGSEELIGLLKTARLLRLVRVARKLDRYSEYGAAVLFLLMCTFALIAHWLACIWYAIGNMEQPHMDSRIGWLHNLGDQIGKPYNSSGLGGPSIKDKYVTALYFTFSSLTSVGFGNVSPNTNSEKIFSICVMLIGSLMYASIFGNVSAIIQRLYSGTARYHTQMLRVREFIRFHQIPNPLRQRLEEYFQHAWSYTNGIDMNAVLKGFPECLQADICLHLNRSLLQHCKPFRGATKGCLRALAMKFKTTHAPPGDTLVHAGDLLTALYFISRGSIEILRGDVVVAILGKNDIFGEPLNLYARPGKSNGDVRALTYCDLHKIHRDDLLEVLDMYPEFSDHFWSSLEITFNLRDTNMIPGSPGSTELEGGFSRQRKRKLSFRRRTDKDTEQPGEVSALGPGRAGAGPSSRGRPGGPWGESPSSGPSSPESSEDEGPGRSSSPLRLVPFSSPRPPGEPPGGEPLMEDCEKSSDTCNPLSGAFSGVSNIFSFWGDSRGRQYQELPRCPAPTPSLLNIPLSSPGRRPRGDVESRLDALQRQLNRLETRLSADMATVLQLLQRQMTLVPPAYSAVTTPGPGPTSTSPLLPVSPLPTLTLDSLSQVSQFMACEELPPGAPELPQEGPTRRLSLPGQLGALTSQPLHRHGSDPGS
human cardiac sodium channel, SCN5A (Nav1.5), sequence (Q14524 whole entry): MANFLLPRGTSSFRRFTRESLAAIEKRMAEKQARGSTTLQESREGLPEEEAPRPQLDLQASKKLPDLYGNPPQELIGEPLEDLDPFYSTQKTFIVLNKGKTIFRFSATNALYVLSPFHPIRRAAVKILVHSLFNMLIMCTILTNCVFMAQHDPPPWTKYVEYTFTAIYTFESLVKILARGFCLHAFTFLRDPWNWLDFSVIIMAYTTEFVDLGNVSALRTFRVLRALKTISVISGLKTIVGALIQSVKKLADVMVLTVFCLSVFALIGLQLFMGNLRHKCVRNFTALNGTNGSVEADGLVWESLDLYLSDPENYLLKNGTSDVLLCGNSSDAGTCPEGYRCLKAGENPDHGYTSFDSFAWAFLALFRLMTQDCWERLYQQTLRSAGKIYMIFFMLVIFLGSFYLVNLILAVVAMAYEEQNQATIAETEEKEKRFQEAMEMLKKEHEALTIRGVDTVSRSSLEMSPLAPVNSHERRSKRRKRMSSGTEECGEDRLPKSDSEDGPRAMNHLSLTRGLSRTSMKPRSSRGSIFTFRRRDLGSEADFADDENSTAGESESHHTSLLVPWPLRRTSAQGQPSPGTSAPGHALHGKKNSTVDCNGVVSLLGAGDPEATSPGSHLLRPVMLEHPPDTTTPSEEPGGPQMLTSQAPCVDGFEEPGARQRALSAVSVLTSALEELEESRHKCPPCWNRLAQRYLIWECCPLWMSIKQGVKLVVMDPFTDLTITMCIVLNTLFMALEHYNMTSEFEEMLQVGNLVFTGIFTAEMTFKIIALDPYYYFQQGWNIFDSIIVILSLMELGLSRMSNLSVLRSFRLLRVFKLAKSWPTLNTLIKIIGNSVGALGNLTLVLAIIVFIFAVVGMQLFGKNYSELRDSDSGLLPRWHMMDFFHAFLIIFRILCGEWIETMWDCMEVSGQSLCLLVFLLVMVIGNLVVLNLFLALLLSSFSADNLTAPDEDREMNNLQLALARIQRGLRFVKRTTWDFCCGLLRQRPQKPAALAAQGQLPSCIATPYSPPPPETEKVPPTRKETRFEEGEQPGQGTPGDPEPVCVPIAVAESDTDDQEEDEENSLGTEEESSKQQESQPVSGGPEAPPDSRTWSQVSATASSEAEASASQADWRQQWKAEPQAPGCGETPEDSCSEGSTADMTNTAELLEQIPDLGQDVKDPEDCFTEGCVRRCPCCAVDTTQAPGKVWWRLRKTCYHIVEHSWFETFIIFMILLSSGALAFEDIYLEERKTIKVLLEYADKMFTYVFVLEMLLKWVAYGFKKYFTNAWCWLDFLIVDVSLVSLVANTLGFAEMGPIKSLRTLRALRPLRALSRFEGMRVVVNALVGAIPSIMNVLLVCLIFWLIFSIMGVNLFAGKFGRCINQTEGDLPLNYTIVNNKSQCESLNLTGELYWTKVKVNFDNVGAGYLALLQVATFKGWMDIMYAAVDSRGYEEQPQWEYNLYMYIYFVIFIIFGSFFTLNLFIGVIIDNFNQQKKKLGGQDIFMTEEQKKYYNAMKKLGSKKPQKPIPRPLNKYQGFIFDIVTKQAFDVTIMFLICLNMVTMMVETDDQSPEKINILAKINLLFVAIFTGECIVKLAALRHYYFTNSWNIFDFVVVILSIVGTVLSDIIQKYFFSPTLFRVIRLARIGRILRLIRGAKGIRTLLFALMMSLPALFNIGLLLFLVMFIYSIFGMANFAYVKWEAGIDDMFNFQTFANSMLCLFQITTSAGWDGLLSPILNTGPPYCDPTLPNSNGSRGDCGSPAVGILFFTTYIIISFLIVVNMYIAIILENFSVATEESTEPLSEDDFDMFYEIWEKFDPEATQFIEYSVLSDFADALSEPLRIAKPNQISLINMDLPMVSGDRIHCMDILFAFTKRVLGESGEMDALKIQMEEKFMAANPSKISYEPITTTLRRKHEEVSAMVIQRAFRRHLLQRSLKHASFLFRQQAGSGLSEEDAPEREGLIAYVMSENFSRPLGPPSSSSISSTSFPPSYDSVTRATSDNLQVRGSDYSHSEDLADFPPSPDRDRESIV

Compound	Papp at 4 h, 100 µM [2] [×10⁻⁶ cm/s]	IC50 [5] [nM]	IC50 [6] [nM]	AUC [7] [µM·h]	AUC [8] [µM·h]	clearance [7] [mL/min/kg]	bioavailability [7] [%]	IC50 [1] [nM]	inhibition at 10000 nM [3] [%]	inhibition at 30000 nM [3] [%]	inhibition at 30000 nM [4] [%]	clearance [8] [mL/min/kg]	bioavailability [8] [%]	inhibition at 100000 nM ([3]; pH 7.4, 100,000 nM) [%]
CC(=O)N[C@@H]1C[C@H](N(C)C(C)C)CC[C@@H]1N1CC[C@H](Nc2ncnc3cnc(C(C)(C)C)nc23)C1=O [Example 1, N-((1R,2S,5R)-2-((3S)-3-((6-tert-butylpyrimido[5,4-d]pyrimidin-4-yl)amino)-2-oxo-1-pyrrolidinyl)-5-(isopropyl(methyl)amino)cyclohexyl)acetamide]	18.7	3.34 ± 0.32	3.85 ± 0.36					> 80000	8	17	13			
CC(=O)N[C@@H]1C[C@H](N(C)C)CC[C@@H]1N1CC[C@H](Nc2ncnc3ccc(C(F)(F)F)cc23)C1=O [Example 8, N-((1R,2S,5R)-5-(dimethylamino)-2-((3S)-2-oxo-3-((6-(trifluoromethyl)-4-quinazolinyl)amino)-1-pyrrolidinyl)cyclohexyl)acetamide]		3.58 ± 0.78	4.09 ± 1.21	7.28	0.558			> 80000	18	37	11			
CN[C@@H]1CC[C@H](N2CC[C@H](Nc3ncnc4ccc(C(F)(F)F)cc34)C2=O)[C@H](NC(C)=O)C1 [Example 3, N-((1R,2S,5R)-5-(methylamino)-2-((3S)-2-oxo-3-((6-(trifluoromethyl)-4-quinazolinyl)amino)-1-pyrrolidinyl)cyclohexyl)acetamide]		4.74 ± 0.58			2.05			> 80000	6	24	3	15	91	
CO[C@@H]1CC[C@H](N2CC[C@H](Nc3ncnc4ccc(C(F)(F)F)cc34)C2=O)[C@H](CNC(C)=O)C1 [Example 15, N-(((1S,2S,5R)-5-methoxy-2-((3S)-2-oxo-3-((6-(trifluoromethyl)-4-quinazolinyl)amino)-1-pyrrolidinyl)cyclohexyl)methyl)acetamide]	18.6	3.34 ± 0.71	0.92 ± 0.67	16.2	0.333	23	93	> 80000		29		28	19	47

Continued, in another order:

Papp at 4 h, 100 µM [2] [×10⁻⁶ cm/s]	IC50 [5] [nM]	IC50 [6] [nM]	AUC [7] [µM·h]	AUC [8] [µM·h]	clearance [7] [mL/min/kg]	bioavailability [7] [%]	Compound	IC50 [1] [nM]	inhibition at 10000 nM [3] [%]	inhibition at 30000 nM [3] [%]	inhibition at 30000 nM [4] [%]	clearance [8] [mL/min/kg]	bioavailability [8] [%]	inhibition at 100000 nM ([3]; pH 7.4, 100,000 nM) [%]
54.1 ± 6.3	4.02 ± 1.31	0.49	10.5	0.263	26	88	CC(C)(C)N[C@@H]1CC[C@H](N2CC[C@H](Nc3ncnc4cnc(C(C)(C)C)nc34)C2=O)[C@H](NS(C)(=O)=O)C1 [Example 13, N-((1R,2S,5R)-5-(tert-butylamino)-2-((3S)-3-((6-tert-butylpyrimido[5,4-d]pyrimidin-4-yl)amino)-2-oxo-1-pyrrolidinyl)cyclohexyl)methanesulfonamide]	> 80000		10				
23.9	4.49 ± 1.35		5.23	0.413	59	91	CCC(=O)N[C@@H]1C[C@H](NC(C)(C)C)CC[C@@H]1N1CC[C@H](NC(=O)c2ccnc(C(C)(C)C)n2)C1=O [Example 12, 2-tert-butyl-N-((3S)-1-((1S,2R,4R)-4-(tert-butylamino)-2-(propionylamino)cyclohexyl)-2-oxo-3-pyrrolidinyl)-4-pyrimidinecarboxamide]	> 80000	6	7				
35	1.91 ± 0.52	0.92	3.04		56	52	CC(C)(C)N[C@@H]1CC[C@H](N2CC[C@H](NC(=O)c3ccnc(C(C)(C)C)n3)C2=O)[C@H](NS(C)(=O)=O)C1 [Example 11, 2-tert-butyl-N—((S)-1-((1S,2R,4R)-4-(tert-butylamino)-2-(methylsulfonamido)cyclohexyl)-2-oxopyrrolidin-3-yl)pyrimidine-4-carboxamide]	> 80000		15				
